Test results as given in PMC11836371, “Virtual fragment screening for DNA repair inhibitors in vast chemical space” (Nature Communications, 2025).
≈ marks a conversion by molar mass, not a printed value. Where “and” joins values, the source holds several entries; their conditions need not be identical. Equal values may be shown once. Read-outs that look alike come from different tables or passages of the source.

Legend:
human OGG1 enzyme = human OGG1 enzyme (Homo sapiens, UniProt O15527); assay: OGG1 glycosylase activity assay (enzyme inhibition, APE1-coupled fluorescence); assay type: biochemical
Protocol: “8” signifies 8-oxoA and “FAM” and “Dab” signify fluorescein and dabcyl (TriLink Biotech). Briefly, compounds dissolved in DMSO were dispensed using an Echo 550 (Labcyte), followed by transfer of enzyme and substrate solutions manually with a 16-channel pipette or with a Multidrop (Thermo Scientific). The plates were centrifuged, sealed and incubated at room temperature overnight (15 h) and read the following morning in an Hidex Sense plate reader (Hidex Oy) using a 485-nm filter with a bandwidth of 10 nm for excitation and a 535-nm filter with a bandwidth of 20 nm for emission.

SMUG1 = biological target: T1, SMUG1 (Homo sapiens, UniProt Q53HV7); assay: BER enzyme selectivity assay, SMUG1; assay type: biochemical; settings: Figure 3B, three independent experiments
T1 construct: purchased New England Biolabs M0336
T1 sequence (Q53HV7 1-270): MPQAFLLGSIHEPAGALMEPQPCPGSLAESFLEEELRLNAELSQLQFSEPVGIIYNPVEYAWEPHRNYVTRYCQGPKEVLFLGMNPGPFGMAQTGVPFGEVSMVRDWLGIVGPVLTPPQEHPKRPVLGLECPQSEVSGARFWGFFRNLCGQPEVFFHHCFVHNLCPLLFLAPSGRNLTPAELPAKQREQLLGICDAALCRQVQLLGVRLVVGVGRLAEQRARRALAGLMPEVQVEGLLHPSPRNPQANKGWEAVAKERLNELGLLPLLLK
Protocol: Inhibition of the following enzymes was assessed in the selectivity assays: apurinic/apyrimidinic endonuclease (APE1), endonuclease 8-like 1 (NEIL1), oxidized purine nucleoside triphosphate hydrolase (MTH1) and single-strand selective monofunctional uracil DNA glycosylase (SMUG1). BER enzymes were assayed with a similar strategy as OGG1, using identical DNA sequences surrounding the substrate lesion and the same reaction buffer containing 2 nM APE1. To assess SMUG1 inhibition, a 375 nM substrate containing uracil opposite guanine and 0.3 U SMUG1 enzyme (M0336 from New England Biolabs) was used. To assess NEIL1 inhibition, a 20 nM substrate containing thymidine glycol opposite adenine and 10 nM NEIL1 was used. […] All BER inhibition assays were in the linear range and less than 40% of the total substrate had been consumed at readout. The experiments were performed in three independent replicates and the percentage inhibition was calculated relative to the signal of a DMSO-treated control. […] The produced free phosphate was then detected using the malachite green assay[76]. […] Absorbance was read at 630 nm using a Hidex Sense plate reader after a period of incubation with the methylene green reagent of 15 minutes. The experiment was performed in three independent replicates and percentage inhibition was calculated relative to the signal of a DMSO-treated control.

[1] = system: NF-κB activation in HEK293T pGF NF-κB cells; assay: TNF-α induced NF-κB activation assay; assay type: cell-based; settings: Homo sapiens, HEK-293T; NFκB activation assay; ± SD; read-out: pEC50 (converted)
Method in brief: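 HEK293T cells carrying NF-κB response element–GFP/luciferase reporter, in DMEM FluoroBrite with 1% dialyzed FBS, stimulated with 10 ng/mL TNF-α alongside compound (8-point 1:2 dose-response, 0.3% DMSO) for 24 h at 37 °C. GFP fluorescence (ex485/em535) gave % inhibition and IC50. Parallel CellTiterGlo viability (11-point, 1:3) with TNF-α gave EC50.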

HCT116 cells = assay: Cancer cell viability assay (resazurin), HCT116; assay type: cell-based; settings: two independent experiments
Method in brief: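 Cells were exposed for 72 h at 37 °C, 5% CO2 to 11-point compound dose-response curves in 10% FBS medium. Resazurin (final 10 µg/mL) was then added for 6 h and resorufin fluorescence read (ex 544/em 595 nm). Viability relative to untreated wells; EC50 from curve fitting.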

[2] = Plasma protein binding in human plasma (RED); assay type: in vitro ADME; settings: plasma (50% plasma, 50% isotonic buffer), pH 7.4, read-out: Protein plasma binding, fu (%)
Protocol: Pooled human plasma was provided by Uppsala Academic Hospital and was collected from two donors (non-smoking) (citric acid). In brief, 0.2 mL of the plasma (50% plasma, 50% isotonic buffer) test solution (typically 10 µM final compound concentration) was transferred to the membrane tube in the RED insert (ThermoFisher Scientific). 0.35 ml isotonic phosphate buffer pH 7.4 was added to the other side of the membrane. The 96-well base plate was then sealed with an adhesive plastic film (Scotch Pad) to prevent evaporation. The sample was incubated with rapid rotation (>>900 rpm) on a Kisker rotational incubator at 37 °C for 4 h to achieve equilibrium. Prior to LC-MS/MS analysis the plasma and buffer samples were treated with the addition of Methanol (1:3) containing Warfarin as an internal standard to precipitate proteins. The standard curve was created using the plasma standard. The plate was then sealed, and centrifuged and the supernatant was analyzed by liquid chromatography coupled to triple quadrupole mass spectrometry (LC-MS/MS).

Thermodynamic solubility = assay type: physicochemical

Sequence of human OGG1 enzyme (O15527 whole entry): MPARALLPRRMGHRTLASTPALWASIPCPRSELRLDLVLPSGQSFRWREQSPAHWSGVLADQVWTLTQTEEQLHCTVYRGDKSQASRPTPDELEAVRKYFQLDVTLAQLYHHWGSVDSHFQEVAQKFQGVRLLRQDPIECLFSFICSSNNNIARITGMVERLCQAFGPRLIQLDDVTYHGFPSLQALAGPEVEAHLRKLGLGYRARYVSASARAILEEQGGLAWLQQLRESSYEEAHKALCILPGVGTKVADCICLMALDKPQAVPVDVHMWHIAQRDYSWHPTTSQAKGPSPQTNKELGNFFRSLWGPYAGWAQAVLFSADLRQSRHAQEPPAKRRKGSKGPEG

Cc1nc(-c2ccc(CC(=O)Nc3noc4c3CCCC4)cc2)c(C)[nH]1 [compound 17]
OGG1 inhibition, dose-response (Figure2C) (human OGG1 enzyme; Concentration (M) 1.93e-7): 17.95 and 20.93 and 16.93 and 26.66
OGG1 inhibition, dose-response (Figure2C) (human OGG1 enzyme; Concentration (M) 3.87e-7): 29.14 and 34.59 and 30.82 and 38.2
OGG1 inhibition, dose-response (Figure2C) (human OGG1 enzyme; Concentration (M) 7.73e-7): 44.06 and 48.74 and 48.24 and 52.23
OGG1 inhibition, dose-response (Figure2C) (human OGG1 enzyme; Concentration (M) 1.55e-6): 58.26 and 62.87 and 66.96 and 67.73
OGG1 inhibition, dose-response (Figure2C) (human OGG1 enzyme; Concentration (M) 3.09e-6): 72.68 and 77.92 and 76.19 and 83.17
OGG1 inhibition, dose-response (Figure2C) (human OGG1 enzyme; Concentration (M) 6.19e-6): 85.12 and 84.21 and 85.13 and 86.27
OGG1 inhibition, dose-response (Figure2C) (human OGG1 enzyme; Concentration (M) 1.24e-5): 90.55 and 92.85 and 89.92 and 91.47
OGG1 inhibition, dose-response (Figure2C) (human OGG1 enzyme; Concentration (M) 2.48e-5): 92.75 and 97.64 and 93.54 and 94.76
OGG1 inhibition, dose-response (Figure2C) (human OGG1 enzyme; Concentration (M) 4.95e-5): 96.49 and 97.45 and 94.85 and 97.57
OGG1 inhibition, dose-response (Figure2C) (human OGG1 enzyme; Concentration (M) 9.9e-5): 96.97 and 96.91 and 94.08 and 97.24
IC50 (human OGG1 enzyme; Figure 3B source data, three independent experiments, read-out: IC50 OGG1): 505 nM and 495 nM and 518 nM
increase of inhibitory potency compared to fragment 1 (human OGG1 enzyme; ratio of IC50 values): > 165 fold
IC50 (human OGG1 enzyme; read-out: IC50): 600 nM
IC50 (SMUG1): > 99000 nM
EC50 [1]: 19100 nM
percentage cell viability (HCT116 cells; HCT116, 100 μM, 100 µM): 23.58%
viability at 100 µM (HCT116 cells; Homo sapiens, HCT-116, HCT116, 100 μM, read-out: percentage cell viability): 11.8%
fraction unbound at 4 h, 10 µM [2]: 0.014
fold higher solubility than TH5487 (Thermodynamic solubility): > 600 fold and > 667 fold
solubility thermodynamic (Thermodynamic solubility; thermodynamic from solid): 667 µM (≈ 234 µg/mL)
